Where a SMILES comes first, the peptide text is derived from it. Bridges are numbered along the chain shown (N, C = ends). [ ]: non-standard residue; d: D form. ξ: configuration not given here. Trp(1-CH2COOH) = N[C@@H](Cc1cn(CC(=O)O)c2ccccc12)C(=O)O; Phe(3,4,5-F3) = N[C@@H](Cc1cc(F)c(F)c(F)c1)C(=O)O; NMeAla(4-thiazolyl) = CN[C@@H](Cc1cscn1)C(=O)O; Phe(3,4-F2) = N[C@@H](Cc1ccc(F)c(F)c1)C(=O)O; d(cisHyp) = O=C(O)[C@H]1C[C@@H](O)CN1; Bta = N[C@@H](Cc1csc2ccccc12)C(=O)O; Hyp = O=C(O)[C@@H]1C[C@@H](O)CN1; NMeF = CN[C@@H](Cc1ccccc1)C(=O)O; 3Pal = N[C@@H](Cc1cccnc1)C(=O)O; dHyp = O=C(O)[C@H]1C[C@H](O)CN1; NMehSer = CN[C@@H](CCO)C(=O)O; NMeNle = CCCC[C@H](NC)C(=O)O; Pip = O=C(O)[C@@H]1CCCCN1; hSer = N[C@@H](CCO)C(=O)O; NMeA = CN[C@@H](C)C(=O)O; Orn = NCCC[C@H](N)C(=O)O; Dab = NCC[C@H](N)C(=O)O; Dap = NC[C@H](N)C(=O)O; ξC = NC(CS)C(=O)O; Sar = CNCC(=O)O

The first experiment deals with T1, Human PD-L1/PD-1 (Homo sapiens, UniProt Q9NZQ7).
T1 construct: TVMV protease cleavage site (C); made in house; host or cells: HEK293T cells
T1 sequence (Q9NZQ7 with tags, fused parts or gaps): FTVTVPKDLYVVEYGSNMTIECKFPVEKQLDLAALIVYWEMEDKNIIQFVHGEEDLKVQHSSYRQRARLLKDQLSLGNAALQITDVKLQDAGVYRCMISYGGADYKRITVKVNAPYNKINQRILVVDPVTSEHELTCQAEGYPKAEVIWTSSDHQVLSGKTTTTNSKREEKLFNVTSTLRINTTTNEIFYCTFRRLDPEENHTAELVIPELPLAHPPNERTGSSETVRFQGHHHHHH
Description: HTRF Human PD-L1/PD-1 binding assay (PD-1-Ig/PD-L1-His). Conditions: PD-L1-His 10 nM, PD-1-Ig 20 nM; class symbol; read-out: HTRF Human PD-L1/PD-1 Binding Assay IC50 Range. The essentials:
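Truncated Fc-fused human PD-1 (aa 25-167) at 20 nM and His-tagged PD-L1 (aa 18-239) at 10 nM final are used, with peptides preincubated 15 min with PD-L1. Detection uses europium-cryptate anti-Ig and APC anti-His antibodies; 665/620 nm ratio.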
In general terms: TR-FRET usually uses a lanthanide donor and a delayed reading to cut background.
As for `CCCC[C@H]1C(=O)N(C)[C@@H](CCCC)C(=O)N[C@@H](CCC(=O)O)C(=O)N[C@H](C(=O)NCC(N)=O)CSCC(=O)N[C@@H](Cc2ccc(O)cc2)C(=O)N(C)[C@@H](C)C(=O)N[C@@H](CC(N)=O)C(=O)N2CCC[C@H]2C(=O)N[C@@H](CN)C(=O)N[C@@H](CCC(=O)O)C(=O)N2C[C@H](O)C[C@H]2C(=O)N[C@@H](Cc2c[nH]c3ccccc23)C(=O)N[C@@H](CCC(=O)O)C(=O)N[C@@H](Cc2c[nH]c3ccccc23)C(=O)N1C` [Example 5243] ({CH2CO}-Y[NMeA]NP[Dap]E[Hyp]WEW[NMeNle][NMeNle]ECG-NH2; thioether N-14), the IC50 was 100 to 990 nM.
Still for that read-out and setting: with `CCCC[C@H]1C(=O)N(C)CC(=O)N[C@@H](CC(=O)O)C(=O)N[C@@H](C(C)C)C(=O)N(C)[C@@H](Cc2ccccc2)C(=O)N[C@@H](Cc2ccc(O)cc2)C(=O)N(C)CC(=O)N[C@@H](Cc2c[nH]c3ccccc23)C(=O)N[C@@H](Cc2ccc(O)cc2)C(=O)N[C@@H](CC(C)C)C(=O)N[C@H](C(=O)NCC(N)=O)CSCC(=O)N[C@@H](Cc2cccnc2)C(=O)N(C)[C@@H](Cc2ccccc2)C(=O)N1C` [Example 3243] ({CH2CO}-[3Pal][NMeF][NMeNle][Sar]DV[NMeF]Y[Sar]WYLCG-NH2; thioether N-13) the figure was 10 to 99.9 nM.
As for `CCCC[C@H]1C(=O)N(C)[C@@H](CCOC)C(=O)N[C@@H](CC(C)C)C(=O)N[C@H](C(=O)NCC(N)=O)CSCC(=O)N[C@@H](Cc2ccc(O)cc2)C(=O)N(C)[C@@H](C)C(=O)N[C@@H](CCN)C(=O)N2CCC[C@H]2C(=O)N[C@@H](Cc2c[nH]cn2)C(=O)N[C@@H](CCC(=O)O)C(=O)N2C[C@H](O)C[C@H]2C(=O)N[C@@H](Cc2c[nH]c3ccccc23)C(=O)N[C@@H](CO)C(=O)N[C@@H](Cc2c[nH]c3ccccc23)C(=O)N1C` [Example 10146] ({CH2CO}-Y[NMeA][Dab]PHE[Hyp]WSW[NMeNle][NMehSer](Me)LCG-NH2; thioether N-14), the IC50 was in the range of 10 to 99.9 nM.
`CCCC[C@H]1C(=O)N(C)[C@@H](CCCC)C(=O)N[C@@H](CCCNC(=N)N)C(=O)NC(C(=O)NCC(N)=O)CSCC(=O)N[C@@H](Cc2ccc(O)cc2)C(=O)N(C)[C@@H](C)C(=O)N[C@@H](CC(N)=O)C(=O)N2CCC[C@H]2C(=O)N[C@@H](CCO)C(=O)N[C@@H](CCO)C(=O)N2C[C@H](O)C[C@H]2C(=O)N[C@@H](Cc2c[nH]c3ccccc23)C(=O)N[C@@H](CO)C(=O)N[C@@H](Cc2c[nH]c3ccccc23)C(=O)N1C` (stereo partly drawn) [Example 10043] ({CH2CO}-Y[NMeA]NP[hSer][hSer][Hyp]WSW[NMeNle][NMeNle]R[ξC]G-NH2; thioether N-14): the IC50 was in the range of 1 to 9.9 nM.
On the same count and under the same terms, the value for `CCCC[C@H]1C(=O)N(C)[C@@H](CCCC)C(=O)N[C@@H](CC(C)C)C(=O)N[C@H](C(=O)NCC(N)=O)CSCC(=O)N[C@@H](Cc2ccc(O)cc2)C(=O)N(C)[C@@H](C)C(=O)N[C@@H](CC(N)=O)C(=O)N2CCC[C@H]2C(=O)N[C@@H](CN)C(=O)N[C@@H](CCC(=O)O)C(=O)N2C[C@H](O)C[C@H]2C(=O)N[C@@H](Cc2c[nH]c3ccccc23)C(=O)N[C@@H](CCN)C(=O)N[C@@H](Cc2cn(CC(=O)O)c3ccccc23)C(=O)N1C` [Example 6146] ({CH2CO}-Y[NMeA]NP[Dap]E[Hyp]W[Dab][Trp(1-CH2COOH)][NMeNle][NMeNle]LCG-NH2; thioether N-14) was 1 to 9.9 nM; that for `CCCC[C@H]1C(=O)N2C[C@H](O)C[C@@H]2C(=O)N[C@@H](CC(=O)O)C(=O)N[C@@H](C(C)C)C(=O)N(C)[C@@H](Cc2ccccc2)C(=O)N[C@@H](CCC(=O)O)C(=O)N2C[C@H](O)C[C@@H]2C(=O)N[C@@H](Cc2c[nH]c3ccccc23)C(=O)N[C@@H](Cc2ccc(O)cc2)C(=O)N[C@@H](CCC(=O)O)C(=O)N[C@H](C(=O)NCC(N)=O)CSCC(=O)N[C@@H](Cc2cc(F)c(F)c(F)c2)C(=O)N(C)[C@@H](Cc2ccccc2)C(=O)N1C` [Example 9335] ({CH2CO}-[Phe(3,4,5-F3)][NMeF][NMeNle][d(cisHyp)]DV[NMeF]E[d(cisHyp)]WYECG-NH2; thioether N-13) was 10 to 99.9 nM; that for `CCCC[C@H]1C(=O)N(C)CC(=O)N[C@@H](CC(N)=O)C(=O)N[C@@H](C(C)C)C(=O)N(C)[C@@H](Cc2ccccc2)C(=O)N[C@@H](Cc2ccc(O)cc2)C(=O)N(C)CC(=O)N[C@@H](Cc2c[nH]c3ccccc23)C(=O)N[C@@H](Cc2ccc(O)cc2)C(=O)N[C@@H](CCCN)C(=O)N[C@H](C(=O)NCC(N)=O)CSCC(=O)N[C@@H](Cc2ccccc2)C(=O)N(C)[C@@H](Cc2cscn2)C(=O)N1C` [Example 3616] ({CH2CO}-F[NMeAla(4-thiazolyl)][NMeNle][Sar]NV[NMeF]Y[Sar]WY[Orn]CG-NH2; thioether N-13) was 10 to 99.9 nM.
As to `CCCC[C@H]1C(=O)N(C)[C@@H](CCCC)C(=O)N[C@@H](CC(C)C)C(=O)N[C@H](C(N)=O)CSCC(=O)N[C@@H](Cc2ccc(O)cc2)C(=O)N(C)[C@@H](C)C(=O)N[C@@H](CC(N)=O)C(=O)N2CCC[C@H]2C(=O)N[C@@H](CN)C(=O)N[C@@H](CC(C)C)C(=O)N2C[C@H](O)C[C@H]2C(=O)N[C@@H](Cc2c[nH]c3ccccc23)C(=O)N[C@@H](CO)C(=O)N[C@@H](Cc2cn(CC(=O)O)c3ccccc23)C(=O)N1C` [Example 6180] ({CH2CO}-Y[NMeA]NP[Dap]L[Hyp]WS[Trp(1-CH2COOH)][NMeNle][NMeNle]LC-NH2; thioether N-14), the IC50 is 1 to 9.9 nM.
The same measure, in the same setting: the value for `CCCC[C@H]1C(=O)N(C)[C@@H](CCCC)C(=O)N[C@@H](CCCN)C(=O)N[C@H](C(=O)NCC(N)=O)CSCC(=O)N[C@@H](Cc2ccc(OC)cc2)C(=O)N(C)[C@@H](C)C(=O)N[C@@H](CC(N)=O)C(=O)N2CCC[C@H]2C(=O)N[C@@H](CN)C(=O)N[C@@H](CCC(=O)O)C(=O)N2C[C@H](O)C[C@H]2C(=O)N[C@@H](Cc2c[nH]c3ccccc23)C(=O)N[C@@H](CCN)C(=O)N[C@@H](Cc2c[nH]c3ccccc23)C(=O)N1C` [Example 7091] ({CH2CO}-Y(Me)[NMeA]NP[Dap]E[Hyp]W[Dab]W[NMeNle][NMeNle][Orn]CG-NH2; thioether N-14) was 1 to 9.9 nM.
For `CCCC[C@H]1C(=O)N(C)[C@@H](CCCC)C(=O)N[C@@H](CN)C(=O)N[C@H](C(=O)NCC(N)=O)CSCC(=O)N[C@@H](Cc2ccc(O)cc2)C(=O)N(C)[C@@H](C)C(=O)N[C@@H](CC(=O)O)C(=O)N2CCC[C@H]2C(=O)N[C@@H](CN)C(=O)N[C@@H](CCC(N)=O)C(=O)N2C[C@H](O)C[C@H]2C(=O)N[C@@H](Cc2c[nH]c3ccccc23)C(=O)N[C@@H](CCN)C(=O)N[C@@H](Cc2cn(CC(=O)O)c3ccccc23)C(=O)N1C` [Example 5192] ({CH2CO}-Y[NMeA]DP[Dap]Q[Hyp]W[Dab][Trp(1-CH2COOH)][NMeNle][NMeNle][Dap]CG-NH2; thioether N-14), the IC50 fell in the range of 1 to 9.9 nM.
Take `CCCC[C@H]1C(=O)N2C[C@H](O)C[C@@H]2C(=O)N[C@@H](CC(=O)O)C(=O)N[C@@H](C(C)C)C(=O)N(C)[C@@H](Cc2ccccc2)C(=O)N[C@@H](CCC(N)=O)C(=O)N2C[C@H](O)C[C@@H]2C(=O)N[C@@H](Cc2c[nH]c3ccccc23)C(=O)N[C@@H](Cc2ccc(O)cc2)C(=O)N[C@@H](CCC(=O)O)C(=O)N[C@H](C(=O)NCC(N)=O)CSCC(=O)N[C@@H](Cc2ccc(F)c(F)c2)C(=O)N(C)[C@@H](Cc2ccccc2)C(=O)N1C` [Example 9315] ({CH2CO}-[Phe(3,4-F2)][NMeF][NMeNle][d(cisHyp)]DV[NMeF]Q[d(cisHyp)]WYECG-NH2; thioether N-13): the IC50 lay within 10 to 99.9 nM.
On the same count and under the same terms, the value for `CCCC[C@H]1C(=O)N[C@@H](CC(N)=O)C(=O)N2CCC[C@H]2C(=O)N[C@@H](CO)C(=O)N[C@@H](CCO)C(=O)N2CCC[C@H]2C(=O)N[C@@H](Cc2c[nH]c3ccccc23)C(=O)N[C@@H](CCN)C(=O)N[C@@H](Cc2c[nH]c3ccccc23)C(=O)N(C)[C@@H](C)C(=O)N(C)[C@@H](C)C(=O)N[C@@H](CCCNC(=N)N)C(=O)NC(C(=O)NCC(N)=O)CSCC(=O)N[C@@H](Cc2ccc(O)cc2)C(=O)N1C` (stereo partly drawn) [Example 10203] ({CH2CO}-Y[NMeNle]NPS[hSer]PW[Dab]W[NMeA][NMeA]R[ξC]G-NH2; thioether N-14) was 1000 to 10000 nM.
Same read-out and setting: with `CCCC[C@H]1C(=O)N(C)[C@@H](CCCC)C(=O)N[C@@H](CCC(=O)O)C(=O)N[C@H](C(=O)NCC(N)=O)CSCC(=O)N[C@@H](Cc2ccc(O)cc2)C(=O)N(C)[C@@H](C)C(=O)N[C@@H](CC(=O)O)C(=O)N2CCC[C@H]2C(=O)N[C@@H](CO)C(=O)N[C@@H](CCC(N)=O)C(=O)N2C[C@H](O)C[C@H]2C(=O)N[C@@H](Cc2c[nH]c3ccccc23)C(=O)N[C@@H](CO)C(=O)N[C@@H](Cc2c[nH]c3ccccc23)C(=O)N1C` [Example 5214] ({CH2CO}-Y[NMeA]DPSQ[Hyp]WSW[NMeNle][NMeNle]ECG-NH2; thioether N-14) the figure was 1 to 9.9 nM; with `COCC[C@H]1C(=O)N2C[C@@H](O)C[C@@H]2C(=O)N[C@@H](CC(=O)O)C(=O)N[C@@H](C(C)C)C(=O)N(C)[C@@H](Cc2ccccc2)C(=O)N[C@@H](Cc2ccc(O)cc2)C(=O)N2C[C@@H](O)C[C@@H]2C(=O)N[C@@H](Cc2c[nH]c3ccccc23)C(=O)N[C@@H](Cc2ccc(O)cc2)C(=O)N[C@@H](CC(C)C)C(=O)N[C@H](C(=O)NCC(N)=O)CSCC(=O)N[C@@H](Cc2ccc(F)c(F)c2)C(=O)N(C)[C@@H](Cc2ccccc2)C(=O)N1C` [Example 9233] ({CH2CO}-[Phe(3,4-F2)][NMeF][NMehSer](Me)[dHyp]DV[NMeF]Y[dHyp]WYLCG-NH2; thioether N-13), 1 to 9.9 nM.

Staying with this experiment, now noted: PD-L1-His 10 nM, PD-1-Ig 20 nM; read-out: HTRF Human PD-L1/PD-1 Binding Assay IC50.
Consider `CCCC[C@H]1C(=O)N(C)[C@@H](CCCC)C(=O)N[C@@H](CCC(=O)O)C(=O)N[C@H](C(=O)NCC(N)=O)CSCC(=O)N[C@@H](Cc2ccc(O)cc2)C(=O)N2CCCC[C@H]2C(=O)N[C@@H](CC(=O)O)C(=O)N2CCC[C@H]2C(=O)N[C@@H](Cc2cnc[nH]2)C(=O)N[C@@H](CCC(N)=O)C(=O)N2C[C@H](O)C[C@H]2C(=O)N[C@@H](Cc2c[nH]c3ccccc23)C(=O)N[C@@H](CO)C(=O)N[C@@H](Cc2csc3ccccc23)C(=O)N1C` [Example 1513] ({CH2CO}-Y[Pip]DPHQ[Hyp]WS[Bta][NMeNle][NMeNle]ECG-NH2; thioether N-14), for which the IC50 was found to be 5.3 nM.

For the origin of these results see patent US10538555B2, “Macrocyclic inhibitors of the PD-1/PD-L1 and CD80(B7-1)/PD-L1 protein/protein interactions” (BRISTOL-MYERS SQUIBB COMPANY, priority 2014, dated 2020).
